Source: article PMC5931107, “Clinical pharmacodynamic/exposure characterisation of the multikinase inhibitor ilorasertib (ABT-348) in a phase 1 dose-escalation trial” (British Journal of Cancer, 2018)
Where two headings read alike, the source gives them in different places.

Key:
[1] = test system: c-KIT; design: method as in PMID 22935731; settings: KIT cellular phosphorylation, ligand stimulated; read-out: Cellular PD marker IC50 (95% confidence limits); cited from earlier work
[2] = test system: Aurora C; design: method as in PMID 22935731; settings: Aurora C autophosphorylation, nocodazole-arrested HeLa cells; read-out: Cellular PD marker IC50 (95% confidence limits); cited from earlier work
[3] = test system: FLT-3; design: method as in PMID 22935731; settings: FLT-3 constitutively phosphorylated in SEM cells, 60 min exposure; read-out: Cellular PD marker IC50 (95% confidence limits); cited from earlier work
[4] = test system: FLT-3; design: method as in PMID 22935731; settings: 1 mM ATP; read-out: Biochemical IC50 (95% confidence limits); cited from earlier work
[5] = test system: PDGFR-β; design: method as in PMID 22935731; settings: PDGFR-β cellular phosphorylation, ligand stimulated; read-out: Cellular PD marker IC50 (95% confidence limits); cited from earlier work
[6] = Safety: treatment-emergent adverse events (CTCAE v4.0), phase 1 trial; type: in vivo, human
Method: Safety was assessed on the basis of AEs, physical examination, vital signs, electrocardiograms, multiple-gated acquisition scans, and clinical laboratory test assessments. AEs were graded using National Cancer Institute CTCAE version 4.0.
Descriptive statistics were used for demographic variables. The numbers and percentages of patients with treatment-emergent AEs (TEAEs) were tabulated using the Medical Dictionary for Regulatory Activities version 16.0 system organ class and preferred term, and further classified according to CTCAE version 4.0 criteria. The safety data set included all patients who received one or more doses of ilorasertib. The pharmacokinetic data set included all patients who received one or more doses of ilorasertib and had one or more pharmacokinetic samples. Values for pharmacokinetic parameters were determined using non-compartmental methods, with data analysed separately for each arm. A repeated measures analysis was performed for Tmax and dose-normalised Cmax, AUCt, and AUC∞. The model included random effects for patient and fixed effects for dose level, day, and the interaction of dose level and day. To assess effects of exposure on pharmacodynamic biomarkers, Cmax was employed as the directly measured marker of exposure for the rapid changes in DBP and PlGF pre-steady-state, while AUC∞ reflected exposure variability at the time of post-multiple-dose skin biopsy. Descriptive statistics were used to summarise ECOG performance status. The efficacy data set included all patients who received one or more doses of ilorasertib.

[7] = design: method as in PMID 25933833; settings: doses above 80 mg PO; data from haematologic malignancies study i.v. arm; cited from earlier work

Nc1ncc(-c2cnn(CCO)c2)c2scc(-c3ccc(NC(=O)Nc4cccc(F)c4)cc3)c12 [ilorasertib, Ilorasertib]
IC50 [1]: 45 nM | IC50 [2]: […] | IC50 [3]: […] | IC50 [4]: […] | IC50 [5]: 11 nM | Any grade AE, patients n (%) ([6]; Arm I PO QD, N = 23): 22 (96) | Constipation, any grade TEAE, patients n (%) ([6]; Arm I PO QD, N = 23): 6 (26) | Decreased appetite, any grade TEAE, patients n (%) ([6]; Arm I PO QD, N = 23): 8 (35) | Diarrhoea, any grade TEAE, patients n (%) ([6]; Arm I PO QD, N = 23): 5 (22) | Diarrhoea, grade 3 or 4 TEAE, patients n (%) ([6]; Arm I PO QD, N = 23): 1 (4) | Dyspnoea, any grade TEAE, patients n (%) ([6]; Arm I PO QD, N = 23): 2 (9) | Fatigue, any grade TEAE, patients n (%) ([6]; Arm I PO QD, N = 23): […] | Grade 3 or 4 AE, patients n (%) ([6]; Arm I PO QD, N = 23): 14 (61) | Headache, any grade TEAE, patients n (%) ([6]; Arm I PO QD, N = 23): 5 (22) | Hypertension, any grade TEAE, patients n (%) ([6]; Arm I PO QD, N = 23): 8 (35) | Hypertension, grade 3 or 4 TEAE, patients n (%) ([6]; Arm I PO QD, N = 23): 4 (17) | Hypokalaemia, any grade TEAE, patients n (%) ([6]; Arm I PO QD, N = 23): 3 (13) | Hypomagnesaemia, any grade TEAE, patients n (%) ([6]; Arm I PO QD, N = 23): 3 (13) | Nausea, any grade TEAE, patients n (%) ([6]; Arm I PO QD, N = 23): 8 (35) | Neutropenia, grade 3 or 4 TEAE, patients n (%) ([6]; Arm I PO QD, N = 23): 0 | Thrombocytopenia, any grade TEAE, patients n (%) ([6]; Arm I PO QD, N = 23): 3 (13) | Urinary tract infection, any grade TEAE, patients n (%) ([6]; Arm I PO QD, N = 23): 2 (9) | Vomiting, any grade TEAE, patients n (%) ([6]; Arm I PO QD, N = 23): 3 (13) | Any grade AE, patients n (%) ([6]; Arm II PO BID, N = 28): 27 (96) | Constipation, any grade TEAE, patients n (%) ([6]; Arm II PO BID, N = 28): 5 (18) | Decreased appetite, any grade TEAE, patients n (%) ([6]; Arm II PO BID, N = 28): 9 (32) | Diarrhoea, any grade TEAE, patients n (%) ([6]; Arm II PO BID, N = 28): 8 (29) | Diarrhoea, grade 3 or 4 TEAE, patients n (%) ([6]; Arm II PO BID, N = 28): 1 (4) | Dyspnoea, any grade TEAE, patients n (%) ([6]; Arm II PO BID, N = 28): 3 (11) | Fatigue, any grade TEAE, patients n (%) ([6]; Arm II PO BID, N = 28): 14 (50) | Grade 3 or 4 AE, patients n (%) ([6]; Arm II PO BID, N = 28): 15 (54) | Headache, any grade TEAE, patients n (%) ([6]; Arm II PO BID, N = 28): 4 (14) | Hypertension, any grade TEAE, patients n (%) ([6]; Arm II PO BID, N = 28): 9 (32) | Hypertension, grade 3 or 4 TEAE, patients n (%) ([6]; Arm II PO BID, N = 28): 4 (14) | Hypokalaemia, any grade TEAE, patients n (%) ([6]; Arm II PO BID, N = 28): 3 (11) | Hypomagnesaemia, any grade TEAE, patients n (%) ([6]; Arm II PO BID, N = 28): 3 (11) | Nausea, any grade TEAE, patients n (%) ([6]; Arm II PO BID, N = 28): 5 (18) | Neutropenia, grade 3 or 4 TEAE, patients n (%) ([6]; Arm II PO BID, N = 28): 2 (7) | Thrombocytopenia, any grade TEAE, patients n (%) ([6]; Arm II PO BID, N = 28): 5 (18) | Urinary tract infection, any grade TEAE, patients n (%) ([6]; Arm II PO BID, N = 28): 5 (18) | Vomiting, any grade TEAE, patients n (%) ([6]; Arm II PO BID, N = 28): 8 (29) | Any grade AE, patients n (%) ([6]; Arm III i.v., N = 7): 7 (100) | Constipation, any grade TEAE, patients n (%) ([6]; Arm III i.v., N = 7): 2 (29) | Decreased appetite, any grade TEAE, patients n (%) ([6]; Arm III i.v., N = 7): 3 (43) | Diarrhoea, any grade TEAE, patients n (%) ([6]; Arm III i.v., N = 7): 2 (29) | Diarrhoea, grade 3 or 4 TEAE, patients n (%) ([6]; Arm III i.v., N = 7): 0 | Dyspnoea, any grade TEAE, patients n (%) ([6]; Arm III i.v., N = 7): 2 (29) | Fatigue, any grade TEAE, patients n (%) ([6]; Arm III i.v., N = 7): 1 (14) | Grade 3 or 4 AE, patients n (%) ([6]; Arm III i.v., N = 7): 3 (43) | Headache, any grade TEAE, patients n (%) ([6]; Arm III i.v., N = 7): 0 | Hypertension, any grade TEAE, patients n (%) ([6]; Arm III i.v., N = 7): 3 (43) | Hypertension, grade 3 or 4 TEAE, patients n (%) ([6]; Arm III i.v., N = 7): 2 (29) | Hypokalaemia, any grade TEAE, patients n (%) ([6]; Arm III i.v., N = 7): 0 | Hypomagnesaemia, any grade TEAE, patients n (%) ([6]; Arm III i.v., N = 7): 0 | Nausea, any grade TEAE, patients n (%) ([6]; Arm III i.v., N = 7): 2 (29) | Neutropenia, grade 3 or 4 TEAE, patients n (%) ([6]; Arm III i.v., N = 7): 0 | Thrombocytopenia, any grade TEAE, patients n (%) ([6]; Arm III i.v., N = 7): 0 | Urinary tract infection, any grade TEAE, patients n (%) ([6]; Arm III i.v., N = 7): 2 (29) | Vomiting, any grade TEAE, patients n (%) ([6]; Arm III i.v., N = 7): 1 (14) | Any grade AE, patients n (%) ([6]; Total, N = 58): 56 (97) | Constipation, any grade TEAE, patients n (%) ([6]; Total, N = 58): […] | Decreased appetite, any grade TEAE, patients n (%) ([6]; Total, N = 58): 20 (34) | Diarrhoea, any grade TEAE, patients n (%) ([6]; Total, N = 58): 15 (26) | Diarrhoea, grade 3 or 4 TEAE, patients n (%) ([6]; Total, N = 58): 2 (3) | Dyspnoea, any grade TEAE, patients n (%) ([6]; Total, N = 58): 7 (12) | Fatigue, any grade TEAE, patients n (%) ([6]; Total, N = 58): 28 (48) | Grade 3 or 4 AE, patients n (%) ([6]; Total, N = 58): 32 (55) | Headache, any grade TEAE, patients n (%) ([6]; Total, N = 58): 9 (16) | Hypertension, any grade TEAE, patients n (%) ([6]; Total, N = 58): 20 (34) | Hypertension, grade 3 or 4 TEAE, patients n (%) ([6]; Total, N = 58): 10 (17) | Hypokalaemia, any grade TEAE, patients n (%) ([6]; Total, N = 58): 6 (10) | Hypomagnesaemia, any grade TEAE, patients n (%) ([6]; Total, N = 58): 6 (10) | Nausea, any grade TEAE, patients n (%) ([6]; Total, N = 58): 15 (26) | Neutropenia, grade 3 or 4 TEAE, patients n (%) ([6]; Total, N = 58): 2 (3) | Thrombocytopenia, any grade TEAE, patients n (%) ([6]; Total, N = 58): 8 (14) | Urinary tract infection, any grade TEAE, patients n (%) ([6]; Total, N = 58): 9 (16) | Vomiting, any grade TEAE, patients n (%) ([6]; Total, N = 58): […] | Grade 3 or 4 TEAE diarrhoea, patients ([6]; all 58 patients): 3% | Grade 3 or 4 TEAE hypertension, patients ([6]; all 58 patients): 17% | Grade 3 or 4 TEAE neutropenia, patients ([6]; all 58 patients): 3% | Patients with TEAEs ([6]; all 58 patients): 97% | Patients with TEAEs considered possibly or probably related to ilorasertib ([6]; all 58 patients): 66% | Patients with TEAEs that led to discontinuation ([6]; all 58 patients): 17% | Patients with grade 3 or 4 TEAEs ([6]; all 58 patients): 55% | Patients with treatment-emergent serious AEs ([6]; all 58 patients): 36% | Patients with treatment-related grade 3 or 4 TEAEs ([6]; all 58 patients): 28% | Serious AE fatigue, patients ([6]; all 58 patients): 3% | Serious AE small intestinal obstruction, patients ([6]; all 58 patients): 7% | TEAE constipation, patients ([6]; all 58 patients): 22% | TEAE decreased appetite (anorexia), patients ([6]; all 58 patients): 34% | TEAE diarrhoea, patients ([6]; all 58 patients): 26% | TEAE fatigue, patients ([6]; all 58 patients): 48% | TEAE hypertension, patients ([6]; all 58 patients): 34% | TEAE nausea, patients ([6]; all 58 patients): 26% | TEAE vomiting, patients ([6]; all 58 patients): […] | Treatment-related TEAE decreased appetite, patients ([6]; all 58 patients): 19% | Treatment-related TEAE diarrhoea, patients ([6]; all 58 patients): 14% | Treatment-related TEAE fatigue, patients ([6]; all 58 patients): 24% | Treatment-related TEAE hypertension, patients ([6]; all 58 patients): 29% | Treatment-related TEAE nausea, patients ([6]; all 58 patients): 17% | Treatment-related TEAE thrombocytopenia, patients ([6]; all 58 patients): 14% | Treatment-related TEAE vomiting, patients ([6]; all 58 patients): 10% | Treatment-related grade 3 or 4 diarrhoea, patients ([6]; all 58 patients): 3% | Treatment-related grade 3 or 4 hypertension, patients ([6]; all 58 patients): 14% | Treatment-related grade 3 or 4 neutropenia, patients ([6]; all 58 patients): 3% | Relatedness of deaths to ilorasertib (investigator) ([6]; in vivo): none of the deaths were considered related to ilorasertib | Deaths resulting from TEAEs ([6]; one patient in Arm I, two in Arm II, within 30 days of discontinuing the study): three patients | Absolute oral bioavailability (estimate) [7]: […]
